Results from PMC9632086, “Phosphodiesterase 10A (PDE10A) as a novel target to suppress β-catenin and RAS signaling in epithelial ovarian cancer” (Journal of Ovarian Research, 2022).

Biological target: T1, PDE10A (Homo sapiens, UniProt Q9Y233)
T1 construct: endogenous PDE10A in SKOV3 cells
Test: cellular cAMP immunoassay after […] for […] min, parental and empty-vector cells versus PDE10A knockout clones
Format: cell-based

T1 sequence (Q9Y233 whole entry): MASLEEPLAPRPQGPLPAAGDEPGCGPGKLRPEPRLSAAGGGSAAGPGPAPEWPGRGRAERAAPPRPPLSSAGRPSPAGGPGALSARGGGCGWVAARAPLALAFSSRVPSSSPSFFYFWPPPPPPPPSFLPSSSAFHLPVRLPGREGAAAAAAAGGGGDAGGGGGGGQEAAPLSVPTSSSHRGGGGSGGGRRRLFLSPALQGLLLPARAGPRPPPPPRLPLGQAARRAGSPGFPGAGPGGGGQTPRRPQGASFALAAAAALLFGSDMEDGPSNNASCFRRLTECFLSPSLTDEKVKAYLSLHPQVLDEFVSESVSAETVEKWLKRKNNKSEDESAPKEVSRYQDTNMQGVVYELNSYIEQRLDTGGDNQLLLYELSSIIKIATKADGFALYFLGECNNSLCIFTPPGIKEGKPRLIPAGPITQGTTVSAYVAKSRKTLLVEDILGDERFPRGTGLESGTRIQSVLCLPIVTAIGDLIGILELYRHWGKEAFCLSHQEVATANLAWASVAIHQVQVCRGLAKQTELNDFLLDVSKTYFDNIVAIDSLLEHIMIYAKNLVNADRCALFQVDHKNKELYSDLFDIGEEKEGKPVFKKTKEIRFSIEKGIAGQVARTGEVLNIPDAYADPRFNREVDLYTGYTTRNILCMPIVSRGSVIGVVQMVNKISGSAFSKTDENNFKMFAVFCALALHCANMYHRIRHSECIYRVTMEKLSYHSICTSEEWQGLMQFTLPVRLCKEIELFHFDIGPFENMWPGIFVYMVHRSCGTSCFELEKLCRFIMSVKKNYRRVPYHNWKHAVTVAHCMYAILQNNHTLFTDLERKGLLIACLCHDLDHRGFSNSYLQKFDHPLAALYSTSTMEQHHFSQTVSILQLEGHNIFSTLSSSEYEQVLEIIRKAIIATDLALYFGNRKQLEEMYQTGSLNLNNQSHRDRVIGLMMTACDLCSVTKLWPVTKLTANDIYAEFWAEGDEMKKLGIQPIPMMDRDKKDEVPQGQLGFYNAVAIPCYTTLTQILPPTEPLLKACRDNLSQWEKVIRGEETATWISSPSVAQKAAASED

Structure (SMILES): COc1ccc2c(c1)C(CC(=O)Nc1cccnc1)=C(C)/C2=C/c1cc(OC)c(OC)c(OC)c1 [MCI-030]
- cellular cAMP level: MCI-030 increased cAMP only in SKOV3 parental and EV 1B9 control cells, but not in the PDE10A KO clones
